Data set [1] deals with folate receptor (Homo sapiens, UniProt P15328). The conditions noted are these: KB cells, 1 hour at 37° C., 100 nM 3H-folic acid, increasing competitor concentrations; folic acid = 1.0.
Data set [2] has as its system KB cells. Briefly: Cell viability in KB cells. The conditions noted are these: 2, 10, and 50 nM, at 24 hours.

Each structure is given as a SMILES string. Entries after “also recorded” stand apart in the source; their conditions may differ.

Sequence of folate receptor (P15328 25-234): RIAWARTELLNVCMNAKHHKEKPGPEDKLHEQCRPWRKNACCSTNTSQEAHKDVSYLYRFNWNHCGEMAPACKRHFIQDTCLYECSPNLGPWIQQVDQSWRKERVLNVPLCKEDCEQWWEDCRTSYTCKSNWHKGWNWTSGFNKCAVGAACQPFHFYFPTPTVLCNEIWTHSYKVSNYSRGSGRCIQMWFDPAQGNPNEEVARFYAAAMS

Regarding `CO[C@H]1C[C@@H]2CC[C@@H](C)[C@@](O)(O2)C(=O)C(=O)N2CCCC[C@H]2C(=O)O[C@H]([C@H](C)C[C@@H]2CC[C@@H](O)[C@H](OC)C2)CC(=O)[C@H](C)/C=C(\C)[C@@H](OC(=O)OCCSSC[C@H](NC(=O)[C@H](CC(=O)O)NC(=O)[C@H](CC(=O)O)NC(=O)[C@H](CCCNC(=N)N)NC(=O)[C@H](CC(=O)O)NC(=O)CC[C@H](NC(=O)c2ccc(NCc3cnc4nc(N)[nH]c(=O)c4n3)cc2)C(=O)O)C(=O)O)[C@@H](OC)C(=O)[C@H](C)C[C@H](C)/C=C/C=C/C=C/1C` [EC0371], the “relative affinity at the folate receptor” value in data set [1] stood at 0.5. Moreover, the “cytotoxicity (cell viability)” value in data set [2] is reported as “Neither rapamycin nor EC0371 is cytotoxic; also recorded: neither rapamycin nor EC0371 was found to be cytotoxic”.

Values taken from patent US8765096B2, “Methods and compositions for treating and diagnosing kidney disease” (Endocyte, Inc, priority 2007, dated 2014).
